Four compounds from ChEMBL document CHEMBL3588782, “Synthesis, antiribosomal and antibacterial activity of 4-O-glycopyranosyl paromomycin aminoglycoside antibiotics” (Medchemcomm, 2014) can be followed below.

Assay [1] has as its system Staphylococcus aureus. Kind of assay: Antibacterial activity against methicillin-resistant Staphylococcus aureus isolate AG 044 by broth microdilution assay. Format: functional.
A short description of assay [2]: Inhibition of human ribosome containing eukaryotic ribosomal RNA A-site A1555G mutant in rabbit reticulocyte lysates assessed as reduction in ribosome-mediated protein synthesis in presence of S-30 extracts by fire fly luciferase synthesis based cell-free translation assay.
Assay [3] deals with Escherichia coli. Kind of assay: Antibacterial activity against Escherichia coli isolate 003 by broth microdilution assay. Format: functional.
Assay [4] can be described thus: Inhibition of Mycobacterium smegmatis ribosome containing ribosomal RNA A-site G1491A mutant in rabbit reticulocyte lysates assessed as reduction in ribosome-mediated protein synthesis in presence of S-30 extracts by fire fly luciferase synthesis based cell-free translation assay. On the set-up: species or system Mycolicibacterium smegmatis.
The subject of assay [5] is Escherichia coli. The assay is described as follows: Antibacterial activity against Escherichia coli isolate 006 by broth microdilution assay. It is filed as functional.
In a further assay the test system is Ribosome. The assay is described as follows: Inhibition of ribosome-mediated protein synthesis in rabbit reticulocyte lysates in presence of S-30 extracts by fire fly luciferase synthesis based cell-free translation assay. On the set-up: species or system Oryctolagus cuniculus.
In assay [6] the test system is Escherichia coli. The assay is described as follows: Antibacterial activity against Escherichia coli isolate 055 by broth microdilution assay. It is filed as functional.
Assay [7] has as its system Staphylococcus aureus. The assay is described as follows: Antibacterial activity against methicillin-resistant Staphylococcus aureus isolate AG 039 by broth microdilution assay. It is filed as functional.
The nature of assay [8]: Inhibition of Mycobacterium smegmatis ribosome containing ribosomal RNA A-site G1491C mutant in rabbit reticulocyte lysates assessed as reduction in ribosome-mediated protein synthesis in presence of S-30 extracts by fire fly luciferase synthesis based cell-free translation assay. Details: species or system Mycolicibacterium smegmatis.
Another assay concerns the target Bacterial 70S ribosome. Kind of assay: Inhibition of Mycobacterium smegmatis ribosome containing wild type ribosomal RNA A-site in rabbit reticulocyte lysates assessed as reduction in ribosome-mediated protein synthesis in presence of S-30 extracts by fire fly luciferase synthesis based cell-free translation assay. Details: species or system Mycolicibacterium smegmatis.

Assay [9] is described as follows: Inhibition of human ribosome containing eukaryotic ribosomal RNA A-site Cyt14 allele in rabbit reticulocyte lysates assessed as reduction in ribosome-mediated protein synthesis in presence of S-30 extracts by fire fly luciferase synthesis based cell-free translation assay.
Assay [10] concerns Staphylococcus aureus. The assay is described as follows: Antibacterial activity against methicillin-resistant Staphylococcus aureus isolate AG 038 by broth microdilution assay. Format: functional.
Assay [11] is described as follows: Inhibition of Mycobacterium smegmatis ribosome containing ribosomal RNA A-site A1408G mutant in rabbit reticulocyte lysates assessed as reduction in ribosome-mediated protein synthesis in presence of S-30 extracts by fire fly luciferase synthesis based cell-free translation assay. On the set-up: species or system Mycolicibacterium smegmatis.
Assay [12] concerns Staphylococcus aureus. The assay is described as follows: Antibacterial activity against methicillin-resistant Staphylococcus aureus isolate AG 042 by broth microdilution assay. It is filed as functional.
A further assay deals with 80S Ribosome. Kind of assay: Inhibition of human ribosome containing eukaryotic wild type ribosomal RNA A-site in rabbit reticulocyte lysates assessed as reduction in ribosome-mediated protein synthesis in presence of S-30 extracts by fire fly luciferase synthesis based cell-free translation assay.
Assay [13] relates to Escherichia coli. The assay is described as follows: Antibacterial activity against Escherichia coli isolate 001 by broth microdilution assay. It is filed as functional.

Converted amounts (≈) assume the structure as drawn.

As to `NC[C@@H]1O[C@H](O[C@H]2[C@@H](O)[C@H](O[C@@H]3[C@@H](O)[C@H](N)C[C@H](N)[C@H]3O[C@H]3O[C@H](CO)[C@@H](O[C@@H]4O[C@H](CO)[C@@H](O)[C@H](O)[C@@H]4O)[C@H](O)[C@H]3N)O[C@@H]2CO)[C@H](N)[C@@H](O)[C@@H]1O`, the MIC with Staphylococcus aureus [1] was ≥ 128 µg/mL; with Escherichia coli [3], > 128 µg/mL; against Escherichia coli [5] it was 64 µg/mL (≈ 82.3 µM); with Escherichia coli [6], > 128 µg/mL; with Staphylococcus aureus [7] it was ≥ 128 µg/mL; in the assay with Staphylococcus aureus [10], ≥ 128 µg/mL. For the same compound, the minimal inhibitory concentration (MIC) in the assay on Staphylococcus aureus [12] is ≥ 128 µg/mL; against Escherichia coli [13], > 128 µg/mL. In addition, the IC50 is 85.7 µg/mL in [2]; 51.48 µg/mL in [4]; 47.64 µg/mL in the assay on Ribosome; 297.39 µg/mL in [8]; 591 nM on Bacterial 70S ribosome; 90.35 µg/mL in assay [9]. Besides, the half-maximal inhibitory concentration (IC50) in [11] is 27.91 µg/mL; on 80S Ribosome, 70200 nM.
As to `NC[C@@H]1O[C@H](O[C@H]2[C@@H](O)[C@H](O[C@@H]3[C@@H](O)[C@H](N)C[C@H](N)[C@H]3O[C@H]3O[C@H](CO)[C@@H](O[C@@H]4O[C@H](CO)[C@@H](N)[C@H](O)[C@H]4O)[C@H](O)[C@H]3N)O[C@@H]2CO)[C@H](N)[C@@H](O)[C@@H]1O`, the MIC in the assay with Staphylococcus aureus [1] is 32 µg/mL (≈ 41.2 µM); in the assay on Escherichia coli [3], > 64 µg/mL; against Escherichia coli [5], 16 µg/mL (≈ 20.6 µM); in the assay on Escherichia coli [6], > 64 µg/mL; in the assay on Staphylococcus aureus [7], > 64 µg/mL; against Staphylococcus aureus [10] it was 32 µg/mL (≈ 41.2 µM). Further, the MIC against Staphylococcus aureus [12] and with Escherichia coli [13] was > 64 µg/mL in each case. In addition, the 50% inhibitory concentration (IC50) in assay [2] was 17.38 µg/mL; in [4], 4.87 µg/mL; in the assay with Ribosome, 32.41 µg/mL; in assay [8] it was 32.03 µg/mL; at Bacterial 70S ribosome, 373 nM; in assay [9], 21.43 µg/mL. The figures for the 50% inhibitory concentration (IC50) (in [11]; at 80S Ribosome) were 2.39 µg/mL and 9810 nM, respectively.
As for `NC[C@@H]1O[C@H](O[C@H]2[C@@H](O)[C@H](O[C@@H]3[C@@H](O)[C@H](N)C[C@H](N)[C@H]3O[C@H]3O[C@H](CO)[C@@H](O[C@H]4O[C@H](CO)[C@@H](O)[C@H](O)[C@@H]4O)[C@H](O)[C@H]3N)O[C@@H]2CO)[C@H](N)[C@@H](O)[C@@H]1O`, the minimum inhibitory concentration (MIC) in the assay on Staphylococcus aureus [1] is 32 µg/mL (≈ 41.1 µM); against Escherichia coli [3], ≥ 128 µg/mL; in the assay with Escherichia coli [5] it was 16 µg/mL (≈ 20.6 µM); against Escherichia coli [6], > 128 µg/mL; against Staphylococcus aureus [7], ≥ 128 µg/mL; against Staphylococcus aureus [10], 64 µg/mL (≈ 82.3 µM). Further, the MIC against Staphylococcus aureus [12] and with Escherichia coli [13] was > 128 µg/mL throughout. Also, the IC50 in assay [2] was 18.05 µg/mL; in assay [4] it was 8.79 µg/mL; in the assay with Ribosome it was 36.82 µg/mL; in [8], 81.32 µg/mL; at Bacterial 70S ribosome, 373 nM; in assay [9], 51.72 µg/mL. The IC50 in assay [11] was 5.1 µg/mL; on 80S Ribosome it was 2820 nM.
Consider `NC[C@@H]1O[C@H](O[C@H]2[C@@H](O)[C@H](O[C@@H]3[C@@H](O)[C@H](N)C[C@H](N)[C@H]3O[C@H]3O[C@H](CO)[C@@H](O[C@H]4O[C@H](CO)[C@@H](N)[C@H](O)[C@H]4O)[C@H](O)[C@H]3N)O[C@@H]2CO)[C@H](N)[C@@H](O)[C@@H]1O`, for which the MIC with Staphylococcus aureus [1] is 4 µg/mL (≈ 5.15 µM); in the assay on Escherichia coli [3], 16 µg/mL (≈ 20.6 µM); against Escherichia coli [5] it was 2 µg/mL (≈ 2.57 µM); against Escherichia coli [6] it was 32 µg/mL (≈ 41.2 µM); against Staphylococcus aureus [7], 8 µg/mL (≈ 10.3 µM); in the assay with Staphylococcus aureus [10], 4 µg/mL (≈ 5.15 µM). Besides, the MIC against Staphylococcus aureus [12] amounted to 8 µg/mL (≈ 10.3 µM); in the assay on Escherichia coli [13] it was 32 µg/mL (≈ 41.2 µM). Moreover, the IC50 was 3.62 µg/mL in assay [2]; 6.07 µg/mL in assay [4]; 19.59 µg/mL with Ribosome; 32.79 µg/mL in [8]; 154 nM at Bacterial 70S ribosome; 18.95 µg/mL in assay [9]. Besides, the IC50 in assay [11] is 7.06 µg/mL; at 80S Ribosome it was 438 nM.
